Values after ≈ are worked out from the molar mass of the structure shown.
Tests used:
Assay in all cases: MIC, agar dilution
Assay type in all cases: cell-based
[1] = tested on: S. aureus ATCC 29213 (Sensitive); conditions: S. aureus ATCC 29213 (Sensitive)
[2] = tested on: S. aureus UBMS 88-4 (Sensitive); conditions: S. aureus UBMS 88-4 (Sensitive)
[3] = tested on: S. haemolyticus AVAH 88-3; conditions: S. haemolyticus AVAH 88-3
[4] = tested on: S. aureus IVES 1983 (meth. resistant); conditions: S. aureus IVES 1983 (meth. resistant)
[5] = tested on: S. aureus UBMS 90-3 (Sensitive); conditions: S. aureus UBMS 90-3 (Sensitive)
[6] = tested on: E. coli UBMS 89-2 (Sensitive); conditions: E. coli UBMS 89-2 (Sensitive)
[7] = tested on: S. aureus UBMS 90-2 (tetM); conditions: S. aureus UBMS 90-2 (tetM)
[8] = tested on: S. aureus IVES 2943 (meth. resistant); conditions: S. aureus IVES 2943 (meth. resistant)
E. coli ATCC 25922 = conditions: E. coli ATCC 25922
[9] = tested on: S. aureus Smith (Sensitive); conditions: S. aureus Smith (Sensitive)
E. faecalis 12201 = conditions: E. faecalis 12201
E. coli UBMS 89-1 (tetM) = conditions: E. coli UBMS 89-1 (tetM)
E. coli UBMS 88-1 (tetB) = conditions: E. coli UBMS 88-1 (tetB)
[10] = tested on: S. aureus UBMS 88-5 (tetM); conditions: S. aureus UBMS 88-5 (tetM)
[11] = tested on: S. aureus UBMS 90-1 (tetM); conditions: S. aureus UBMS 90-1 (tetM)
[12] = tested on: S. aureus UBMS 88-7 (tetK); conditions: S. aureus UBMS 88-7 (tetK)
E. faecalis ATCC 29212 = conditions: E. faecalis ATCC 29212
[13] = tested on: E. coli UBMS 88-2 (Sensitive); conditions: E. coli UBMS 88-2 (Sensitive)

SMILES | MIC [1] | MIC [2] | MIC [3] [µg/mL] | MIC [4] [µg/mL] | MIC [5] [µg/mL] | MIC [6] [µg/mL] | MIC [7] [µg/mL] | MIC [8] [µg/mL] | MIC (E. coli ATCC 25922) [µg/mL] | MIC [9] [µg/mL] | MIC (E. faecalis 12201) [µg/mL] | MIC (E. coli UBMS 89-1 (tetM)) [µg/mL] | MIC (E. coli UBMS 88-1 (tetB)) [µg/mL] | MIC [10] [µg/mL] | MIC [11] [µg/mL] | MIC [12] [µg/mL] | MIC (E. faecalis ATCC 29212) [µg/mL] | MIC [13] [µg/mL]
CN(C)CC(=O)Nc1cc(N(C)C)c2c(c1O)C(=O)C1=C(O)C3(O)C(=O)C(C(N)=O)=C(O)C(N(C)C)C3CC1C2.O=S(=O)(O)O (stereo not shown) [II, 7-(Dimethylamino)-9-[[(dimethylamino)acetyl]amino]-6-demethyl-6-deoxytetracycline sulfate] | 0.03 µg/mL | 0.06 µg/mL | 0.25 | 1 | 0.06 | 0.25 | 0.06 | 1 | 0.12 | 0.12 | 0.12 | 0.12 | 0.25 | 0.12 | 0.25 | 0.06 | 0.03 | 
CN(C)c1cc(NC(=O)c2c(F)c(F)c(F)c(F)c2F)c(O)c2c1CC1CC3C(N(C)C)C(O)=C(C(N)=O)C(=O)C3(O)C(O)=C1C2=O (stereo not shown) [T, 7-(Dimethylamino)-9-((pentafluorobenzoyl)amino]-6-demethyl-6-deoxytetracycline] | 1 µg/mL (≈ 1.5 µM) | 4 µg/mL (≈ 6 µM) | 4 (≈ 6 µM) | 4 (≈ 6 µM) | 2 (≈ 3 µM) | >32 | 2 (≈ 3 µM) | 4 (≈ 6 µM) | >32 | 4 (≈ 6 µM) | 4 (≈ 6 µM) |  | >32 | 4 (≈ 6 µM) | 4 (≈ 6 µM) | 4 (≈ 6 µM) | 4 (≈ 6 µM) | >32
CN(C)c1cc(NS(=O)(=O)c2ccc(Cl)cc2)c(O)c2c1CC1CC3C(N(C)C)C(O)=C(C(N)=O)C(=O)C3(O)C(O)=C1C2=O (stereo not shown) [EE, 9-[[(4-Chlorophenyl)sulfonyl]amino)-7-(dimethylamino)-6-demethyl-6-deoxytetracycline] | 0.03 µg/mL (≈ 0.0464 µM) | 0.12 µg/mL (≈ 0.185 µM) |  | 1 (≈ 1.55 µM) | 0.12 (≈ 0.185 µM) | >32 | 0.12 (≈ 0.185 µM) | 0.5 (≈ 0.773 µM) | >32 | 0.12 (≈ 0.185 µM) |  |  | >32 | 0.12 (≈ 0.185 µM) | 0.25 (≈ 0.386 µM) | 1 (≈ 1.55 µM) | 0.06 (≈ 0.0927 µM) | >32
Cc1ccccc1C(=O)Nc1cc(N(C)C)c2c(c1O)C(=O)C1=C(O)C3(O)C(=O)C(C(N)=O)=C(O)C(N(C)C)C3CC1C2 (stereo not shown) [R, 7-(Dimethylamino)-9-((2-methylbenzoyl)amino]-6-demethyl-6-deoxytetracycline] | 0.12 µg/mL (≈ 0.203 µM) | 2 µg/mL (≈ 3.39 µM) | 8 (≈ 13.5 µM) | 8 (≈ 13.5 µM) | 1 (≈ 1.69 µM) | >32 | 2 (≈ 3.39 µM) | 4 (≈ 6.77 µM) | >32 | 1 (≈ 1.69 µM) | 8 (≈ 13.5 µM) |  | 2 (≈ 3.39 µM) | 4 (≈ 6.77 µM) | 8 (≈ 13.5 µM) | 4 (≈ 6.77 µM) | 2 (≈ 3.39 µM) | >32
CN(C)c1cc(NS(=O)(=O)c2cccc([N+](=O)[O-])c2)c(O)c2c1CC1CC3C(N(C)C)C(O)=C(C(N)=O)C(=O)C3(O)C(O)=C1C2=O (stereo not shown) [BB] | 0.06 µg/mL (≈ 0.0912 µM) | 1 µg/mL (≈ 1.52 µM) | 4 (≈ 6.08 µM) | 8 (≈ 12.2 µM) | 0.12 (≈ 0.182 µM) | 16 (≈ 24.3 µM) | 0.5 (≈ 0.76 µM) | 4 (≈ 6.08 µM) | 2 (≈ 3.04 µM) | 0.25 (≈ 0.38 µM) |  |  | >32 |  | 2 (≈ 3.04 µM) | 4 (≈ 6.08 µM) | 0.12 (≈ 0.182 µM) | 4 (≈ 6.08 µM)
CN(C)c1cc(NS(C)(=O)=O)c(O)c2c1CC1CC3C(N(C)C)C(O)=C(C(N)=O)C(=O)C3(O)C(O)=C1C2=O (stereo not shown) [FF, 7-(Dimethylamino)-9-[(methylsulfonyl)amino]-6-demethyl-6-deoxytetracycline] | 0.03 µg/mL (≈ 0.0545 µM) | 0.25 µg/mL (≈ 0.454 µM) |  | 16 (≈ 29.1 µM) | 0.12 (≈ 0.218 µM) | 2 (≈ 3.63 µM) | 0.06 (≈ 0.109 µM) | 16 (≈ 29.1 µM) | 2 (≈ 3.63 µM) | 0.12 (≈ 0.218 µM) |  |  | 8 (≈ 14.5 µM) | 0.25 (≈ 0.454 µM) | 0.25 (≈ 0.454 µM) | 8 (≈ 14.5 µM) | 0.06 (≈ 0.109 µM) | 2 (≈ 3.63 µM)
CN(C)c1cc(NS(=O)(=O)c2ccccc2)c(O)c2c1CC1CC3C(N(C)C)C(O)=C(C(N)=O)C(=O)C3(O)C(O)=C1C2=O (stereo not shown) [CC, 7-(Dimethylamino)-9-[(phenylsulfonyl)amino]-6-demethyl-6-deoxytetracycline] | ≦0.015 μg/ml | 0.03 µg/mL (≈ 0.049 µM) | 4 (≈ 6.53 µM) | 4 (≈ 6.53 µM) | 4 (≈ 6.53 µM) | 16 (≈ 26.1 µM) | 0.06 (≈ 0.0979 µM) | 4 (≈ 6.53 µM) | 2 (≈ 3.26 µM) | 4 (≈ 6.53 µM) |  |  | 16 (≈ 26.1 µM) | 4 (≈ 6.53 µM) | 4 (≈ 6.53 µM) | 4 (≈ 6.53 µM) | 0.06 (≈ 0.0979 µM) | 8 (≈ 13.1 µM)
CN(C)c1cc(NS(=O)(=O)c2cccs2)c(O)c2c1CC1CC3C(N(C)C)C(O)=C(C(N)=O)C(=O)C3(O)C(O)=C1C2=O (stereo not shown) [DD, 7-(Dimethylamino)-9-[(2-thienylsulfonyl)amino)-6-demethyl-6-deoxytetracycline] | 0.03 µg/mL (≈ 0.0485 µM) | 0.5 µg/mL (≈ 0.808 µM) | 2 (≈ 3.23 µM) | 4 (≈ 6.47 µM) | 0.25 (≈ 0.404 µM) | 16 (≈ 25.9 µM) | 0.25 (≈ 0.404 µM) | 4 (≈ 6.47 µM) | 4 (≈ 6.47 µM) | 0.03 (≈ 0.0485 µM) |  |  | 32 (≈ 51.7 µM) | 0.5 (≈ 0.808 µM) | 1 (≈ 1.62 µM) | 2 (≈ 3.23 µM) | 0.25 (≈ 0.404 µM) | 8 (≈ 12.9 µM)
CCN(CC)c1cc(NC=O)c(O)c2c1C[C@H]1C[C@H]3[C@H](N(C)C)C(O)=C(C(N)=O)C(=O)[C@@]3(O)C(O)=C1C2=O.O=S(=O)(O)O.O=S(=O)(O)O [D, 7-(Diethylamino)-9-(formylamino)-6-demethyl-6-deoxytetracycline disulfate] | ≦0.015 μg/ml | 0.12 µg/mL |  | 4 | 0.06 | 0.5 | 0.12 | 4 | 0.5 | 0.03 | 1 |  | >32 | 0.25 | 0.5 | 2 | 0.12 | 0.5
COC(=O)Nc1cc(N(C)C)c2c(c1O)C(=O)C1=C(O)[C@]3(O)C(=O)C(C(N)=O)=C(O)[C@@H](N(C)C)C3CC1C2 (stereo partly drawn) [HH, [7S-(7α,10aα)]-[9-(Aminocarbonyl)-4,7-bis(dimethylamino)-5,5a,6,6a,7,10,10a,12-octahydro-1,8,10a,11-tetrahydroxy-10,12-dioxo-2-naphthacenyl]carbamic acid methyl ester] | ≦0.015 μg/ml | 0.03 µg/mL (≈ 0.0565 µM) | 0.25 (≈ 0.471 µM) | 2 (≈ 3.77 µM) | 0.03 (≈ 0.0565 µM) | 4 (≈ 7.54 µM) | 0.25 (≈ 0.471 µM) | 2 (≈ 3.77 µM) | 2 (≈ 3.77 µM) | 0.03 (≈ 0.0565 µM) | 2 (≈ 3.77 µM) | 4 (≈ 7.54 µM) | 16 (≈ 30.2 µM) | 0.25 (≈ 0.471 µM) | 1 (≈ 1.88 µM) | 0.5 (≈ 0.942 µM) | 0.25 (≈ 0.471 µM) | 
CC(=O)Nc1cc(N(C)C)c2c(c1O)C(=O)C1=C(O)[C@]3(O)C(=O)C(C(N)=O)=C(O)[C@@H](N(C)C)[C@@H]3C[C@@H]1C2 [B, 9-(Acetylamino)-7-(dimethylamino)-6-demethyl-6-deoxytetracycline] | 0.12 µg/mL (≈ 0.233 µM) | ≦0.06 μg/ml |  |  |  |  |  | 64 (≈ 124 µM) | 2 (≈ 3.89 µM) | 0.12 (≈ 0.233 µM) | 0.5 (≈ 0.972 µM) |  | >128 | 0.12 (≈ 0.233 µM) |  | 4 (≈ 7.77 µM) | 0.12 (≈ 0.233 µM) | 2 (≈ 3.89 µM)

Source: patent USRE40086E1, “Method for treating bacterial infection with novel 7-substituted-9-substituted amino 6-demethyl-6-deoxytetracyclines” (Wyeth Holdings Corporation, priority 1991, dated 2008)
